Assay results: article PMC2248166, “Quantitative peptide binding motifs for 19 human and mouse MHC class I molecules derived using positional scanning combinatorial peptide libraries” (Immunome Research, 2008)

Assays:
Assay type in all cases: binding
H-2 K^d = H-2 K^d (Mus musculus, UniProt P01902)
H-2 K^k = H-2 K^k (Mus musculus, UniProt P04223)
HLA A*3001 = HLA A*3001 (Homo sapiens, UniProt P04439, D140H/D185E/E176W/F33S/G80R/H175R/K168Q/R138E/R41S); assay: biochemical
HLA B*5301 = HLA B*5301 (Homo sapiens, UniProt P01889, A329T/A93T/A95T/C349S/D201E/D98Y/E176V/E187L/E204Q/E69T/G107R/I218V/K202T/L105A/L119I/N104I/Q94N/R106L/R155S/R180L/S101N/S121R/S35A/S48A/T118I/V127L/V306I/V36M/Y140S/Y91F)
HLA B*5802 = HLA B*5802 (Homo sapiens, UniProt P01889, A329T/C349S/D201E/D98Y/E176V/E187L/E204Q/E69T/G107R/I218V/I90N/K202T/L105A/N104I/N87E/Q89R/Q94S/R106L/R155S/R180L/R86G/S101N/S121W/S35A/S48A/V127L/V306I/V36M/Y140S/Y91M)
HLA B*5101 = HLA B*5101 (Homo sapiens, UniProt P01889, A329T/A93T/A95T/C349S/D138N/D201E/D98Y/E187L/E204Q/E69T/G107R/I218V/K202T/L105A/L119W/N104I/Q94N/R106L/R155S/R180L/S101N/S121T/S35A/S48A/V306I/V36M/Y195H/Y91F)
HLA B*5401 = HLA B*5401 (Homo sapiens, UniProt P01889, A329T/C349S/D138N/D201E/E176V/E187T/E204Q/E69G/I76V/K202T/L119W/R155S/R180L/S121T/S35A/S48A/V127L/V306I/V36M/Y140L)
HLA A*6802 = HLA A*6802 (Homo sapiens, UniProt P04439, A269V/D140Y/D185E/E176V/E277Q/E87N/F33Y/G231S/I121R/I166T/I218V/L180W/L300P/L318F/N151K/P208A/P217A/Q86R/R138H/R169H/S129P/T345S/V36M)
H-2 D^d = H-2 D^d (Mus musculus, UniProt P01900)
HLA B*1503 = HLA B*1503 (Homo sapiens, UniProt P01889, A329T/A93T/A95T/C349S/D201E/D98Y/E187L/E204Q/K202T/N87E/Q94N/R155S/R180L/S121R/S35A/V306I/V36M/Y140S/Y91S); assay: biochemical
HLA B*3501 = HLA B*3501 (Homo sapiens, UniProt P01889, A329T/A93T/A95T/C349S/D201E/D98Y/E176V/E187L/E204Q/E69T/I218V/K202T/L119I/Q94N/R155S/R180L/S121R/S35A/S48A/T118I/V127L/V306I/V36M/Y140S/Y91F)
HLA B*1501 = HLA B*1501 (Homo sapiens, UniProt P01889, A329T/A93T/A95T/C349S/D201E/D98Y/E187L/E204Q/E69M/E70A/K202T/N87E/Q94N/R155S/R180W/S121R/S35A/S48A/V306I/V36M/Y140S/Y91S); assay: biochemical
HLA B*0801 = HLA B*0801 (Homo sapiens, UniProt P01889, A93T/A95T/D138N/E176V/E187T/K202T/Q94N/R180D/S35A/V36M/Y33D/Y91F); assay: biochemical
HLA B*5801 = HLA B*5801 (Homo sapiens, UniProt P01889, A329T/C349S/D201E/D98Y/E176V/E187L/E204Q/E69T/G107R/I218V/I90N/K202T/L105A/L119I/N104I/N87E/Q89R/Q94S/R106L/R155S/R180L/R86G/S101N/S121R/S35A/S48A/T118I/V127L/V306I/V36M/Y140S/Y91M)
H-2 D^b = H-2 D^b (Mus musculus, UniProt P01899)
HLA A*3201 = HLA A*3201 (Homo sapiens, UniProt P04439, A270S/D101S/D185E/E176V/E277Q/F133L/G103R/G107R/G231S/H175R/I121M/I218V/I322F/K168Q/L105A/L300P/L318F/M331R/P208A/P217A/Q94H/R106L/R138Q/S129P/T104I/T323A/T345S/V100E/V321M/V358M); assay: biochemical

H-2 D^b, sequence (P01887 21-119): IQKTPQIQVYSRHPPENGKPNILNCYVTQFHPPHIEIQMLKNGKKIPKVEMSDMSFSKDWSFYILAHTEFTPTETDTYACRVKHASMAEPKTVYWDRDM
H-2 D^b, sequence (P01899 25-362): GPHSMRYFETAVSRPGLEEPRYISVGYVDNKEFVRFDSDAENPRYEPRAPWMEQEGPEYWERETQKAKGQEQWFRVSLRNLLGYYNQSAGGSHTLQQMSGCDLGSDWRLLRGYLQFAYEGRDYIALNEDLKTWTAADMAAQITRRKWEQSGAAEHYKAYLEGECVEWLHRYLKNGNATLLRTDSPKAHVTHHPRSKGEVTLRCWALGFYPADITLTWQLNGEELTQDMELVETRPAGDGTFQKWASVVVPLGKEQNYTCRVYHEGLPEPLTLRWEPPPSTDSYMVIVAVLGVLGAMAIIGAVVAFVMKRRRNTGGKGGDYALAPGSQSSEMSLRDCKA
H-2 K^d, sequence (P01887 21-119): as the sequence (P01887 21-119) above
H-2 K^d, sequence (P01902 22-368): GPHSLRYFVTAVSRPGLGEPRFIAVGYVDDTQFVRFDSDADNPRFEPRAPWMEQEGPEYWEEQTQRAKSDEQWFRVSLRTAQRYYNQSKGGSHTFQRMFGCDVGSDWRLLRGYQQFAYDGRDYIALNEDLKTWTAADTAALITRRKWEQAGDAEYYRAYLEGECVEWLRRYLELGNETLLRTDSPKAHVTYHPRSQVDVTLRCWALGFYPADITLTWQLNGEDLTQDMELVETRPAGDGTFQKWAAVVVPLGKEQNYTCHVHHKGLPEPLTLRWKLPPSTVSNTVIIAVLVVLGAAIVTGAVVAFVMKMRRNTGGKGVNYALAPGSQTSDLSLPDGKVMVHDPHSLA
H-2 K^k, sequence (P01887 21-119): as the sequence (P01887 21-119) above
H-2 K^k, sequence (P04223 22-369): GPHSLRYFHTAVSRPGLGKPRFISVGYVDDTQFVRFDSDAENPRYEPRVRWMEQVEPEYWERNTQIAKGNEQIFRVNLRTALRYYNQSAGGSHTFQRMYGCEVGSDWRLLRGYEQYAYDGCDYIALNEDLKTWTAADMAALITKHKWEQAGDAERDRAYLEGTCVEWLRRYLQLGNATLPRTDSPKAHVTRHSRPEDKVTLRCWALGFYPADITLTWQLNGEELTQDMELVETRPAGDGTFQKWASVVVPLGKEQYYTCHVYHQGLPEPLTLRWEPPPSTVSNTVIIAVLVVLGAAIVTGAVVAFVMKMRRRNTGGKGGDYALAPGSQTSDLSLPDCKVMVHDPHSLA
H-2 D^d, sequence (P01900 whole entry, looked up): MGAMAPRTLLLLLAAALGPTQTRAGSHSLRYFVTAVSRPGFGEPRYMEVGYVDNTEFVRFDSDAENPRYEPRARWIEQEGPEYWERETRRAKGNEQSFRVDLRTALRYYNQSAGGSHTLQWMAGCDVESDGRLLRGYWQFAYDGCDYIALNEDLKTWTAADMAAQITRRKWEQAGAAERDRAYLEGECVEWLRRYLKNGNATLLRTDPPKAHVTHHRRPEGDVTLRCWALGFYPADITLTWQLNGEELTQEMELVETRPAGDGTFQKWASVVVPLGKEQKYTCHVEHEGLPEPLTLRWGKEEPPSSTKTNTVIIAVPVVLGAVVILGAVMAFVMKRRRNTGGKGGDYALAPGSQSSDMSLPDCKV

Row | Sequence | Normalized average relative binding affinity(ARB) (H-2 K^d) | Normalized average relative binding affinity(ARB) (H-2 K^k) | Normalized average relative binding affinity(ARB) (HLA A*3001) | Normalized average relative binding affinity(ARB) (HLA B*5301) | Normalized average relative binding affinity(ARB) (HLA B*5802) | Normalized average relative binding affinity(ARB) (HLA B*5101) | Normalized average relative binding affinity(ARB) (HLA B*5401) | Normalized average relative binding affinity(ARB) (HLA A*6802) | Normalized average relative binding affinity(ARB) (H-2 D^d) | Normalized average relative binding affinity(ARB) (HLA B*1503) | Normalized average relative binding affinity(ARB) (HLA B*3501) | Normalized average relative binding affinity(ARB) (HLA B*1501) | Normalized average relative binding affinity(ARB) (HLA B*0801) | Normalized average relative binding affinity(ARB) (HLA B*5801) | Normalized average relative binding affinity(ARB) (H-2 D^b) | Normalized average relative binding affinity(ARB) (HLA A*3201)
1 | XXXXXAXXX [3064.0101] | 0.26 | 0.83 | 0.34 | 0.65 | 0.91 | 0.43 | 0.20 | 0.82 | 0.51 | 0.45 | 0.21 | 0.30 | 0.011 | 0.28 | 0.62 | 0.83
2 | XXXXXCXXX [3064.0102] | 0.26 | 0.40 | 0.13 | 0.13 | 0.38 | 0.26 | 0.10 | 0.44 | 0.43 | 0.096 | 0.15 | 0.40 | 0.039 | 0.17 | 0.66 | 0.19
3 | XXXXXDXXX [3064.0103] | 0.066 | 0.37 | 0.016 | 0.15 | 0.15 | 0.064 | 0.045 | 0.69 | 0.29 | 0.19 | 0.13 | 0.18 | 0.0089 | 0.36 | 0.29 | 0.16
4 | XXXXXEXXX [3064.0104] | 0.083 | 0.18 | 0.059 | 0.21 | 0.14 | 0.12 | 0.065 | 0.75 | 0.31 | 0.40 | 0.21 | 0.30 | 0.023 | 0.80 | 0.43 | 0.35
5 | XXXXXFXXX [3064.0105] | 0.39 | 1.0 | 1.0 | 0.86 | 0.36 | 1.0 | 0.30 | 1.0 | 0.79 | 1.0 | 1.0 | 1.0 | 1.0 | 0.51 | 0.70 | 0.90
6 | XXXXXGXXX [3064.0106] | 0.30 | 0.60 | 0.18 | 0.22 | 0.16 | 0.29 | 0.14 | 0.30 | 0.48 | 0.68 | 0.33 | 0.35 | 0.025 | 0.31 | 0.76 | 0.22
7 | XXXXXHXXX [3064.0107] | 0.31 | 0.20 | 0.16 | 0.30 | 0.27 | 0.33 | 1.0 | 0.11 | 0.48 | 0.25 | 0.26 | 0.28 | 0.12 | 0.40 | 0.36 | 0.50
8 | XXXXXIXXX [3064.0108] | 0.36 | 0.55 | 0.27 | 0.41 | 0.072 | 0.74 | 0.81 | 0.38 | 0.46 | 0.41 | 0.28 | 0.53 | 0.048 | 0.67 | 0.77 | 0.83
